Test results as given in PubChem BioAssay AID256 (DTP/NCI, 2004).
Where “and” joins values, the source holds several entries; their conditions need not be identical. Equal entries are not always repeated. Toxic doses and inconclusive results are not listed. How the source made its calls: active means survival T/C of 150% or more; inactive means T/C below 125% in these data.

System: CD2F1 mice, L1210 leukemia ip, survival T/C
Experiment: NCI In Vivo Anticancer Drug Screen. Data for tumor model L1210 Leukemia (intraperitoneal) in CD2F1 (CDF1) mice
Conditions: higher = longer survival
Outline: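 In this screen, transplantable tumors were grown in mice given either the compound or its vehicle. Results were expressed as the treated measurement relative to the control measurement.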

[1] = endpoint: mean survival time, dose: 50.0 mg/kg/injection, schedule: Q01DX009 (ip), vehicle: Klucel (hydroxypropylcellulose) (HPC)
[2] = endpoint: mean survival time, dose: 100.0 mg/kg/injection, schedule: Q01DX009 (ip), vehicle: Klucel (hydroxypropylcellulose) (HPC)
[3] = endpoint: mean survival time, dose: 200.0 mg/kg/injection, schedule: Q01DX009 (ip), vehicle: Klucel (hydroxypropylcellulose) (HPC)
[4] = endpoint: mean survival time, dose: 100.0 mg/kg/injection, schedule: Q04DX003 (ip), vehicle: saline with Tween-80
[5] = endpoint: mean survival time, dose: 100.0 mg/kg/injection, schedule: Q01DX009 (ip), vehicle: saline with Tween-80
[6] = endpoint: mean survival time, dose: 200.0 mg/kg/injection, schedule: Q01DX009 (ip), vehicle: saline with Tween-80
[7] = endpoint: mean survival time, dose: 200.0 mg/kg/injection, schedule: Q04DX003 (ip), vehicle: saline with Tween-80
[8] = endpoint: mean survival time, dose: 400.0 mg/kg/injection, schedule: Q01DX009 (ip), vehicle: saline with Tween-80
[9] = endpoint: mean survival time, dose: 400.0 mg/kg/injection, schedule: Q04DX003 (ip), vehicle: saline with Tween-80
[10] = endpoint: mean survival time, dose: 100.0 mg/kg/injection, schedule: Q04DX003 (ip), vehicle: saline
[11] = endpoint: mean survival time, dose: 25.0 mg/kg/injection, schedule: Q01DX009 (ip), vehicle: Klucel (hydroxypropylcellulose) (HPC)

Measured: T/C

O=P(O)(O)CP(=O)(O)O.[NH-]CC[NH-].[NH-]CC[NH-].[Pd+2].[Pd+2]
inactive: endpoint: mean survival time, dose: 3.13 mg/kg/injection, schedule: Q04DX003 (ip), vehicle: distilled water + Tween-80 95 % of control | endpoint: mean survival time, dose: 6.25 mg/kg/injection, schedule: Q04DX003 (ip), vehicle: distilled water + Tween-80 106 % of control | endpoint: mean survival time, dose: 12.5 mg/kg/injection, schedule: Q04DX003 (ip), vehicle: distilled water + Tween-80 95 % of control | endpoint: mean survival time, dose: 25.0 mg/kg/injection, schedule: Q04DX003 (ip), vehicle: distilled water + Tween-80 97 % of control | endpoint: mean survival time, dose: 50.0 mg/kg/injection, schedule: Q04DX003 (ip), vehicle: distilled water + Tween-80 98 % of control | endpoint: mean survival time, dose: 100.0 mg/kg/injection, schedule: Q04DX003 (ip), vehicle: distilled water + Tween-80 106 % of control

N#CCCCN1C(=O)c2ccccc2C1=O
inactive: [1] 99 % of control | [2] 97 % of control | [3] 99 % of control

CNNC(=O)OC
inactive: endpoint: mean survival time, dose: 25.0 mg/kg/injection, schedule: Q04DX002 (ip), vehicle: saline 95 % of control | endpoint: mean survival time, dose: 50.0 mg/kg/injection, schedule: Q04DX002 (ip), vehicle: saline 98 % of control | endpoint: mean survival time, dose: 100.0 mg/kg/injection, schedule: Q04DX002 (ip), vehicle: saline 121 % of control and 109 % of control

NC(=O)c1cc(N2CC2)c([N+](=O)[O-])cc1[N+](=O)[O-]
inactive: endpoint: mean survival time, dose: 25.0 mg/kg/injection, schedule: Q01DX009 (ip), vehicle: saline with Tween-80 114 % of control | endpoint: mean survival time, dose: 25.0 mg/kg/injection, schedule: Q04DX003 (ip), vehicle: saline with Tween-80 110 % of control | endpoint: mean survival time, dose: 50.0 mg/kg/injection, schedule: Q01DX009 (ip), vehicle: saline with Tween-80 115 % of control | endpoint: mean survival time, dose: 50.0 mg/kg/injection, schedule: Q04DX003 (ip), vehicle: saline with Tween-80 97 % of control | [4] 106 % of control

COc1ccc(/C=C/C(=O)c2ccccc2)cc1Br
inactive: [5] 104 % of control | [4] 97 % of control | [6] 98 % of control | [7] 98 % of control | [8] 101 % of control | [9] 95 % of control

[O]=[Mo]
inactive: [10] 107 % of control

CCOC(=O)C1=C(C)NC(C)=C(C(=O)OCC)C1c1ccccn1
inactive: [1] 94 % of control | [2] 91 % of control | [3] 89 % of control

CCN(CC)C(=S)SCCSC(=S)N(CC)CC
inactive: endpoint: mean survival time, dose: 100.0 mg/kg/injection, schedule: Q04DX002 (ip), vehicle: saline with Tween-80 92 % of control | endpoint: mean survival time, dose: 200.0 mg/kg/injection, schedule: Q04DX002 (ip), vehicle: saline with Tween-80 106 % of control | endpoint: mean survival time, dose: 400.0 mg/kg/injection, schedule: Q04DX002 (ip), vehicle: saline with Tween-80 89 % of control

Cc1ccc(C2=C(Cl)C(=O)C(c3ccc(C)cc3)=C(Cl)C2=O)cc1
inactive: endpoint: mean survival time, dose: 75.0 mg/kg/injection, schedule: Q01DX001 (ip), vehicle: other 92 % of control | endpoint: mean survival time, dose: 150.0 mg/kg/injection, schedule: Q01DX001 (ip), vehicle: other 92 % of control | endpoint: mean survival time, dose: 300.0 mg/kg/injection, schedule: Q01DX001 (ip), vehicle: other 94 % of control

O=c1[nH]c2ccccc2c2ccccc12
inactive: [5] 98 % of control | [6] 90 % of control | [8] 102 % of control

CCOC(=O)/C(=C/[N-]c1ccccc1[N-]/C=C(\C(C)=O)C(=O)OCC)C(C)=O.[Pt+2]
inactive: endpoint: median survival time, dose: 10.0 mg/kg/injection, schedule: Q04DX003 (ip), vehicle: saline with Tween-80 98 % of control | endpoint: median survival time, dose: 20.0 mg/kg/injection, schedule: Q04DX003 (ip), vehicle: saline with Tween-80 96 % of control | endpoint: median survival time, dose: 40.0 mg/kg/injection, schedule: Q04DX003 (ip), vehicle: saline with Tween-80 89 % of control | endpoint: median survival time, dose: 50.0 mg/kg/injection, schedule: Q04DX003 (ip), vehicle: saline with Tween-80 96 % of control | endpoint: median survival time, dose: 80.0 mg/kg/injection, schedule: Q04DX003 (ip), vehicle: saline with Tween-80 101 % of control | endpoint: median survival time, dose: 100.0 mg/kg/injection, schedule: Q04DX003 (ip), vehicle: saline with Tween-80 97 % of control | endpoint: median survival time, dose: 200.0 mg/kg/injection, schedule: Q04DX003 (ip), vehicle: saline with Tween-80 101 % of control

CCCCCNc1ncnc2c(C)[nH]nc12
inactive: endpoint: median survival time, dose: 25.0 mg/kg/injection, schedule: Q01DX009 (ip), vehicle: Klucel (hydroxypropylcellulose) (HPC) 101 % of control | endpoint: median survival time, dose: 50.0 mg/kg/injection, schedule: Q01DX009 (ip), vehicle: Klucel (hydroxypropylcellulose) (HPC) 108 % of control | endpoint: median survival time, dose: 100.0 mg/kg/injection, schedule: Q01DX009 (ip), vehicle: Klucel (hydroxypropylcellulose) (HPC) 100 % of control | endpoint: median survival time, dose: 200.0 mg/kg/injection, schedule: Q01DX009 (ip), vehicle: Klucel (hydroxypropylcellulose) (HPC) 96 % of control

CCN(CC)CCOC(=O)C(c1ccccc1)C(C)(O)CC (stereo not given)
inactive: endpoint: mean survival time, dose: 25.0 mg/kg/injection, schedule: Q01DX009 (ip), vehicle: saline 101 % of control | endpoint: mean survival time, dose: 50.0 mg/kg/injection, schedule: Q01DX009 (ip), vehicle: saline 87 % of control | endpoint: mean survival time, dose: 100.0 mg/kg/injection, schedule: Q01DX009 (ip), vehicle: saline 104 % of control | [10] 88 % of control

CC(=O)Nc1ccc(/C=N\NC(=O)C2CC2)cc1
inactive: [4] 93 % of control | [7] 96 % of control | [9] 93 % of control

C#CC(=O)c1ccccc1
inactive: endpoint: mean survival time, dose: 9.4 mg/kg/injection, schedule: Q04DX003 (ip), vehicle: saline 93 % of control

CN1C2CCC1CC(OC(=O)c1ccccc1)C2 (stereo not given)
inactive: endpoint: mean survival time, dose: 100.0 mg/kg/injection, schedule: Q04DX002 (ip), vehicle: Klucel (hydroxypropylcellulose) (HPC) 121 % of control | endpoint: mean survival time, dose: 200.0 mg/kg/injection, schedule: Q04DX002 (ip), vehicle: Klucel (hydroxypropylcellulose) (HPC) 90 % of control | endpoint: mean survival time, dose: 400.0 mg/kg/injection, schedule: Q04DX002 (ip), vehicle: Klucel (hydroxypropylcellulose) (HPC) 100 % of control

C=CS(C=C)=NS(=O)(=O)c1ccc(C)cc1
inactive: endpoint: mean survival time, dose: 1.56 mg/kg/injection, schedule: Q01DX009 (ip), vehicle: Klucel (hydroxypropylcellulose) (HPC) 97 % of control and 107 % of control | endpoint: mean survival time, dose: 3.12 mg/kg/injection, schedule: Q01DX009 (ip), vehicle: Klucel (hydroxypropylcellulose) (HPC) 100 % of control and 105 % of control | endpoint: mean survival time, dose: 6.25 mg/kg/injection, schedule: Q01DX009 (ip), vehicle: Klucel (hydroxypropylcellulose) (HPC) 95 % of control and 103 % of control | endpoint: mean survival time, dose: 12.5 mg/kg/injection, schedule: Q01DX009 (ip), vehicle: Klucel (hydroxypropylcellulose) (HPC) 100 % of control and 107 % of control | [11] 97 % of control and 105 % of control

CC(C)(Nc1nc2c(ncn2C2OC(CO)C(O)C2O)c(=O)[nH]1)P(=O)(O)O (stereo not given)
inactive: endpoint: median survival time, dose: 12.5 mg/kg/injection, schedule: Q01DX005 (ip), vehicle: water 105 % of control | endpoint: median survival time, dose: 25.0 mg/kg/injection, schedule: Q01DX005 (ip), vehicle: water 103 % of control | endpoint: median survival time, dose: 50.0 mg/kg/injection, schedule: Q01DX005 (ip), vehicle: water 108 % of control | endpoint: median survival time, dose: 100.0 mg/kg/injection, schedule: Q01DX005 (ip), vehicle: water 105 % of control

O=C(/C=C(\CN1CCCCC1)c1ccccc1)c1ccccc1
inactive: [11] 95 % of control | [1] 105 % of control | [2] 94 % of control

CC12CCC(OC3CCCCO3)CC1=CCC1C2CCC2(C)C1CCC2(O)CCN (stereo not given)
inactive: endpoint: mean survival time, dose: 6.25 mg/kg/injection, schedule: Q01DX005 (ip), vehicle: other 100 % of control | endpoint: mean survival time, dose: 12.5 mg/kg/injection, schedule: Q01DX005 (ip), vehicle: other 97 % of control | endpoint: mean survival time, dose: 15.6 mg/kg/injection, schedule: Q01DX001 (ip), vehicle: Klucel (hydroxypropylcellulose) (HPC) 104 % of control | endpoint: mean survival time, dose: 31.2 mg/kg/injection, schedule: Q01DX001 (ip), vehicle: Klucel (hydroxypropylcellulose) (HPC) 96 % of control | endpoint: mean survival time, dose: 62.5 mg/kg/injection, schedule: Q01DX001 (ip), vehicle: Klucel (hydroxypropylcellulose) (HPC) 98 % of control
